Source: patent US6379965B1, “Multifunctional complexes for gene transfer into cells comprising a nucleic acid bound to a polyamine and having an endosome disruption agent” (American Home Products Corporation, priority 1994, dated 2002)

Columns and labels:
[1] = tested on: Human hepatocellular carcinoma HuH7 cells; assay: Transfection of adherent HuH7 cells in culture with pCMVβ plasmid, β-galactosidase activity; format: cell-based; settings: HuH7 lysate; 0.5 μg pCMVβ plasmid + 0.5 μg tri-galactosyl-lysyl-lysyl aminopentyl spermidine + 2.5 μg cholesteryl-oxycarbonyl aminopentyl spermidine in 100 μL Optimem; after 30 min
Procedure: Human hepatocellular carcinoma HuH7 cells were grown and seeded into a 96 well plate with 1-2×10^4 cells in 100 μL of minimal essential media α, modification with 10% serum. The plates were incubated in a 37° CO2 incubator until the cells were 60-80% confluent (approximately 24 hrs). The media was removed and the cells washed once with Optimem® (serum free media). Optimem® (100 μL) containing 0.5 μg of pCMVβ plasmid (from Clonetech, No. 6177-1), 0.5 μg of N^4-(5-[N^2,N^6-bis(β-3′-propionyl galactosyl-β1-4-thioglucoside)lysyl-N^6-(β-3′-propionyl galactosyl-β1-4-thioglucoside)lysyl]aminopentyl)-spermidine and 2.5 μg of N^4-(5-cholestene-3′β-oxycarbonyl)-aminopentyl)spermidine was added to the cells. The cells were incubated with the mixture for 4 hrs in a 37° CO2 incubator; thereafter 100 μL of media containing 20% serum was added and the incubation continued for an additional 20 hrs. Cells lysed with 0.5% NP-40 in 140 mM NaCl, 10 mM tris, 1.5 mM MgCl2 were assayed for β-galactosidase activity using o-nitrophenyl β-D-galactopyranoside, and gave A405=1.35 after 30 min. Cells grown in 6 well plates (25 mm diameter) and treated similarly were fixed with 2% paraformaldehyde and assayed for β-galactosidase activity using 5-bromo-4-chloro-3-indolyl β-D-galactopyranoside (J. Sambrook, et al., Molecular Cloning: A Laboratory Manual, Cold Spring Harbor, 1989).

Liver Cells = assay: Transfection of liver cells in vivo with pHBVSA plasmid, serum hepatitus B surface antigen immunoassay; design: species or system BALB-C mice; settings: 10 μg pHBVSA plasmid + 5 μg tri-galactosyl compound + 25 μg cholesteryl compound in 100 μL PBS, tail vein; 48 hrs post-injection; example in present tense
Procedure: […] The plasmid solution (100 μL) is injected into the tail vein of 6-12 week old BALB-C mice. The mice are sacrificed 48-120 hrs later and the serum tested for hepatitus B surface antigen using a commercial enzyme-linked immunoassay.

Muscle Cells = assay: Transfection of muscle cells in vivo with pCMVβ plasmid, β-galactosidase staining of quadriceps; design: species or system BALB-C mice; settings: 100 μg pCMVβ plasmid + 100 μg compound in 100 μL PBS, injected into rear quadriceps, approx. 96 hrs; control plasmid in 0.25% bupivicaine hydrochloride
Procedure: Solutions were prepared containing 100 μg of pCMVβ plasmid and 100 μg of either N^4-octylspermidine, N^4-dodecylspermidine or N^4-(5-cholestene-3′β-oxycarbonyl)aminopentyl)spermidine, each in 100 μL of phosphate buffered saline. The plasmid solution (100 μL) was injected into the rear quadriceps of 6-12 week old BALB-C mice. The mice were sacrificed approximately 96 hrs later and the entire quadriceps muscle tissue was removed. The muscle was fixed with formalin for 2 hrs, and assayed for β-galactosidase activity using 5-bromo-4-chloro-3-indolyl-β-D-galactopyranoside (1 mg/mL in tris/EDTA pH 8.5). All three injections were scored as positive since the blue color was more intense than the control: injection of 100 μg of pCMVβ plasmid injected in 100 μL of 0.25% bupivicaine hydrochloride in citrate buffer pH 6.0.

Row | Molecule | β-galactosidase activity using o-nitrophenyl β-D-galactopyranoside, A405 [1] | production of hepatitus B surface antigen in serum (Liver Cells) | β-galactosidase staining of quadriceps muscle, score versus control (Muscle Cells)
1 | 4-[(N^2-[N^2,N^6-bis(3-[4-O(β-D-galactopyranosyl)-β-D-glucopyranosylthio]propionyl)lysyl]N^6-(3-[4-O-(β-D-galactopyranosyl)-β-D-glucopyranosylthio]-propionyl)lysinamido)pentyl]-1,8-diamino-4-azaoctane, acetate salt | 1.35 | greater than the positive control | –
2 | CC(C)CCC[C@@H](C)[C@H]1CC[C@H]2[C@@H]3CC=C4C[C@@H](OC(=O)NCCCCCN(CCCN)CCCCN)CC[C@]4(C)[C@H]3CC[C@]12C.Cl [N^4-(5-cholestene-3′β-oxycarbonyl)aminopentyl spermidine hydrochloride Salt] | 1.35 | greater than the positive control | positive
3 | CCCCCCCCCCCCN(CCCN)CCCCN.Cl.Cl.Cl [N^4-dodecylspermidine, N^4-dodecylspermidine trihydrochloride] | – | – | positive
4 | N^4-octylspermidine | – | – | positive
